Assay type in all cases: cell-based
For test [1], the system named is human ovarian cancer cell line OVCAR3. In words: Test 1 of anti-proliferative activity against tumor cells (Cell-Titer Glo). The method, then: (§1) Cell culture: HCT116 cells and SKBR3 cells were cultured in McCoy's 5a medium containing 10% fetal bovine serum+1% penicillin-streptomycin at 37° C. and 5% CO2, and OVCAR3 cells were cultured in 1640 medium containing 20% fetal bovine serum+2 μg/mL bovine insulin+1% penicillin-streptomycin at 37° C. and 5% CO2. Cells in logarithmic growth phase were suitable for the experiment.
(§2) Detection of cell proliferation activity: The inhibitory activity of the compounds on the proliferation of the three cell lines HCT116, SKBR3 and OVCAR3 was detected using Cell-Titer Glo reagent. HCT116 cells (1500 cells per well), SKBR3 cells (3000 cells per well) and OVCAR3 cells (5000 cells per well) were seeded in 96-well plates and cultured at 37° C. and 5% CO2 for 24 h. The solution of the compound to be tested (the compound was dissolved in DMSO with the concentration of the compound being 1 mM, then the compound was diluted to 3 μM with DMSO, with 3-fold dilution and a total of 9 concentrations, and 10 μL of the prepared compound solution was transferred to a 96-well plate with the final concentration of 0-300 nM) was added. The cells were placed at 37° C. and 5% CO2 for further culture. HCT116 cells were cultured for 3 days, and SKBR3 cells and OVCAR3 cells were cultured for 5 days. The cell viability was detected by adding Cell-Titer Glo reagent.
(§3) Additionally, a negative control group and a positive control group were provided as Bottom and Top, respectively. In the negative control group, the cells were not added, only the same volume of medium was added, and other operations were consistent with those in the experimental group; in the positive control group, the test compound was not added, only the same volume of DMSO was added, and other operations were consistent with those in the experimental group.
(§4) Data analysis: The % compound inhibition was calculated, and fitting was performed to obtain IC50 of the compound.
(§5) % Compound inhibition=1−100%*(Signal−Bottom)/(Top−Bottom).
(§6) Signal represents the signal value of the experimental group, Bottom represents the average signal value of the negative control group, and Top represents the average signal value of the positive control group.

Test [2] relates to human breast cancer cell line SKBR3. The description is as above. The method, then:
as §1, §2, §3, §4, §5, §6

The test system of test [3] is Human colorectal cancer cell line HCT116. The description is as above. As for the experimental part: as §1, §2, §3, §4, §5, §6
Test [4] relates to Human ovarian cancer cell line SK-OV-3. In words: Test 2 of anti-proliferative activity against tumor cells (Cell-Titer Glo). As for the experimental part:
(§7) Cell culture: SK-OV-3 cells were cultured in McCoy's 5a medium containing 10% fetal bovine serum+1% penicillin-streptomycin, PA-1 cells were cultured in MEM medium containing 10% fetal bovine serum+1% MEM NEAA+1% sodium pyruvate+1% penicillin-streptomycin, NCI-H82 cells and MDA-MB-231 cells were cultured in 1640 medium containing 10% fetal bovine serum+1% penicillin-streptomycin, A549 cells were cultured in DMEM medium containing 10% fetal bovine serum+1% penicillin-streptomycin, all under conditions of 37° C. and 5% CO2. Cells in logarithmic growth phase were suitable for the experiment.
(§8) Detection of cell proliferation activity: The inhibitory activity of the compounds on the proliferation of the five cell lines SK-OV-3, PA-1, NCI-H82, MDA-MB-231 and A549 was detected using Cell-Titer Glo reagent. SK-OV-3 cell (1000 cells per well), PA-1 cells (800 cells per well), NCI-H82 cells (5000 cells per well), MDA-MB-231 cells (3000 cells per well) and A549 cells (400 cells per well) were seeded in 96-well plates and cultured at 37° C. and 5% CO2 for 24 h. The compound to be tested was dissolved in DMSO to a concentration of 1 mM, then subjected to gradient dilution with DMSO and corresponding medium, and transferred to 96-well cell plates to a final concentration of 300 nM (initial concentration), with 3-fold dilution and a total of 9 concentration points. The cells were cultured at 37° C. and 5% CO2 for additional 5 days. The cell viability was detected by adding Cell-Titer Glo reagent.
as §3, §4, §5, §6

Test [5] concerns human ovarian cancer cell line PA-1. Described as above. The method, then: as §7, §8, §3, §4, §5, §6
Test [6] relates to human breast cancer cell line MDA-MB-231. The description is as above. As for the experimental part: as §7, §8, §3, §4, §5, §6
Test [7] concerns human small cell lung cancer cell line NCI-H82. The description is as above. As to conditions: Homo sapiens, NCI-H82, 120 h, read-out: NCI-H82 Anti-proliferative activity IC50 (nM), NCI-H82 cells, 5 days, Cell-Titer Glo. The method, then: as §7, §8, §3, §4, §5, §6
Test [8] deals with human non-small cell lung cancer cell line A549. Described as above. The method, then: as §7, §8, §3, §4, §5, §6
The mark [9] stands for this setting: Homo sapiens, OVCAR-3, 120 h, read-out: OVCAR3 Anti-proliferative activity IC50 (nM).
Where [10] appears, read: Homo sapiens, SK-BR-3, 120 h, read-out: SKBR3 Anti-proliferative activity IC50 (nM), SKBR3 cells, cultured 5 days with compound, Cell-Titer Glo.
[11] abbreviates: Homo sapiens, HCT-116, 72 h, read-out: HCT116 Anti-proliferative activity IC50 (nM), HCT116 cells, cultured 3 days with compound, Cell-Titer Glo.
Where [12] appears, read: Homo sapiens, SK-OV-3, 120 h, read-out: SK-OV-3 Anti-proliferative activity IC50 (nM).
The mark [13] stands for this setting: Homo sapiens, PA-1, 120 h, read-out: PA-1 Anti-proliferative activity IC50 (nM), PA-1 cells, 5 days, Cell-Titer Glo.
The mark [14] stands for this setting: Homo sapiens, MDA-MB-231, 120 h, read-out: MDA-MB-231 Anti-proliferative activity IC50 (nM).
Where [15] appears, read: Homo sapiens, A549, 120 h, read-out: A549 Anti-proliferative activity IC50 (nM), A549 cells, 5 days, Cell-Titer Glo.
Setting [16] is: Homo sapiens, OVCAR-3, 120 h, OVCAR3 cells, cultured 5 days with compound, Cell-Titer Glo, read-out: OVCAR3 Anti-proliferative activity IC50.
[17] abbreviates: Homo sapiens, SK-BR-3, 120 h, SKBR3 cells, cultured 5 days with compound, Cell-Titer Glo, read-out: SKBR3 Anti-proliferative activity IC50.
The mark [18] stands for this setting: Homo sapiens, SK-OV-3, 120 h, SK-OV-3 cells, 5 days, Cell-Titer Glo, read-out: SK-OV-3 Anti-proliferative activity IC50.
Where [19] appears, read: Homo sapiens, PA-1, 120 h, PA-1 cells, 5 days, Cell-Titer Glo, read-out: PA-1 Anti-proliferative activity IC50.
Where [20] appears, read: Homo sapiens, MDA-MB-231, 120 h, MDA-MB-231 cells, 5 days, Cell-Titer Glo, read-out: MDA-MB-231 Anti-proliferative activity IC50.
[21] abbreviates: Homo sapiens, A549, 120 h, A549 cells, 5 days, Cell-Titer Glo, read-out: A549 Anti-proliferative activity IC50.

By IC50 is commonly meant the point on the concentration scale where inhibition reaches its midpoint.

Where two headings read alike, the source gives them in different places.

Take `CC[C@@]1(O)C(=O)OCc2c1cc1n(c2=O)Cc2c-1nc1cc(F)c(Cl)c(F)c1c2CNC(=O)[C@@H](C)O` [Compound 25, (R)-N-(((S)-9-chloro-4-ethyl-8,10-difluoro-4-hydroxy-3,14-dioxo-3,4,12,14-tetrahydro-1H-pyrano[3′,4′:6,7]indolizino[1,2-b]quinolin-11-yl)methyl)-2-hydroxypropanamide]: the IC50 was determined as 2 nM in test [1] (setting [9]), 3.7 nM in test [2] (setting [10]) and 7.9 nM in test [3] (setting [11]).
Take `CC[C@@]1(O)C(=O)OCc2c1cc1n(c2=O)Cc2c-1nc1cc(F)c(Cl)c(F)c1c2CNC(=O)[C@H](C)O` [Compound 26, (S)-N-(((S)-9-chloro-4-ethyl-8,10-difluoro-4-hydroxy-3,14-dioxo-3,4,12,14-tetrahydro-1H-pyrano[3′,4′:6,7]indolizino[1,2-b]quinolin-11-yl)methyl)-2-hydroxypropanamide]: the results for the IC50 in test [1] (setting [9]), in test [2] (setting [10]) and in test [3] (setting [11]) were 1.6 nM, 4.2 nM and 9.5 nM, respectively.
Take `CC[C@@]1(O)C(=O)OCc2c1cc1n(c2=O)Cc2c-1nc1cc3c(c(Cl)c1c2CNC(=O)CO)OCO3` [Compound 31, (S)-N-((15-chloro-7-ethyl-7-hydroxy-8,11-dioxo-7,8,11,13-tetrahydro-10H-[1,3]dioxolo[4,5-g]pyrano[3′,4′:6,7]indolizino[1,2-b]quinolin-14-yl)methyl)-2-hydroxyacetamide]: the IC50 turned out to be 0.2 nM in test [1] (setting [9]); 1.2 nM in test [3] (setting [11]); 12.3 nM in test [4] (setting [12]); 1.7 nM in test [5] (setting [13]); 13.5 nM in test [6] (setting [14]); 4 nM in test [7]. In test [8] (setting [15]), the IC50 amounted to 15.9 nM.
Consider `CC[C@@]1(O)C(=O)OCc2c1cc1n(c2=O)Cc2c-1nc1cc3c(c(F)c1c2CN)OCO3` [Compound 35, (S)-14-(aminomethyl)-7-ethyl-15-fluoro-7-hydroxy-10,13-dihydro-11H-[1,3]dioxolo[4,5-g]pyrano[3′,4′:6,7]indolizino[1,2-b]quinoline-8,11(7H)-dione], for which the values for the IC50 in test [1] (setting [9]) and in test [5] (setting [13]) were 0.9 nM and 0.8 nM, respectively.
For `CC[C@@]1(O)C(=O)OCc2c1cc1n(c2=O)Cc2c-1nc1cc3c(c(F)c1c2CNC(=O)C(O)C1CC1)OCO3` (stereo partly drawn) [Compound 37, 2-cyclopropyl-N-(((S)-7-ethyl-15-fluoro-7-hydroxy-8,11-dioxo-7,8,11,13-tetrahydro-10H-[1,3]dioxolo[4,5-g]pyrano[3′,4′:6,7]indolizino [1,2-b]quinolin-14-yl)methyl)-2-hydroxyacetamide], the IC50 in test [1] (setting [9]) turned out to be 1.2 nM; in test [2] (setting [10]) it was 3.5 nM; in test [3] (setting [11]), 8.1 nM; in test [4] (setting [12]), 3.5 nM; in test [5] (setting [13]) it was 0.9 nM; in test [6] (setting [14]), 23.9 nM. In addition, in test [8] (setting [15]), the IC50 came to 19.6 nM.
In the case of `CC[C@@]1(O)C(=O)OCc2c1cc1n(c2=O)Cc2c-1nc1cc3c(c(F)c1c2CNC(=O)[C@@H](O)C1CC1)OCO3` [Compound 37-P2, 2-cyclopropyl-N-(((S)-7-ethyl-15-fluoro-7-hydroxy-8,11-dioxo-7,8,11,13-tetrahydro-10H-[1,3]dioxolo[4,5-g]pyrano[3′,4′:6,7]indolizino [1,2-b]quinolin-14-yl)methyl)-2-hydroxyacetamide], the IC50 in test [1] (setting [16]) is 1.8 nM; in test [2] (setting [17]) it was 3.6 nM; in test [4] (setting [18]), 3 nM; in test [5] (setting [19]) it was 1.1 nM; in test [6] (setting [20]), 25.9 nM; in test [8] (setting [21]) it was 16.1 nM.
With `[2H]C1([2H])Oc2cc3nc4c(c(CNC(=O)[C@@H](O)C5CC5)c3cc2O1)Cn1c-4cc2c(c1=O)COC(=O)[C@]2(O)CC` [Compound 39-P1, 2-cyclopropyl-N-(((S)-7-ethyl-7-hydroxy-8,11-dioxo-7,8,11,13-tetrahydro-10H-[1,3]dioxolo[4,5-g]pyrano[3′,4′:6,7]indolizino[1,2-b]quinolin-14-yl-2,2-d2)methyl)-2-hydroxyacetamide], the IC50 in test [1] (setting [16]) was found to be 0.6 nM; in test [2] (setting [17]) it was 1.9 nM; in test [3] (Homo sapiens, HCT-116, 72 h, HCT116 cells, cultured 3 days with compound, Cell-Titer Glo, read-out: HCT116 Anti-proliferative activity IC50), 4.6 nM; in test [4] (setting [18]) it was 1.9 nM; in test [5] (setting [19]), 0.9 nM; in test [6] (setting [20]), 15.6 nM. Also, the IC50 in test [8] (setting [21]) came to 13.9 nM.
`[2H]C1([2H])Oc2cc3nc4c(c(CNC(=O)[C@@H](O)C5CC5)c3cc2O1)Cn1c-4cc2c(c1=O)COC(=O)[C@]2(O)CC` [Compound 39-P2, 2-cyclopropyl-N-(((S)-7-ethyl-7-hydroxy-8,11-dioxo-7,8,11,13-tetrahydro-10H-[1,3]dioxolo[4,5-g]pyrano[3′,4′:6,7]indolizino[1,2-b]quinolin-14-yl-2,2-d2)methyl)-2-hydroxyacetamide]: the IC50 in test [1] (OVCAR3 cells, cultured 5 days with compound, Cell-Titer Glo, read-out: OVCAR3 Anti-proliferative activity IC50) worked out at 1 nM; in test [2] (SKBR3 cells, cultured 5 days with compound, Cell-Titer Glo, read-out: SKBR3 Anti-proliferative activity IC50), 2.9 nM; in test [3] (HCT116 cells, cultured 3 days with compound, Cell-Titer Glo, read-out: HCT116 Anti-proliferative activity IC50), 6.5 nM; in test [4] (SK-OV-3 cells, 5 days, Cell-Titer Glo, read-out: SK-OV-3 Anti-proliferative activity IC50), 2.1 nM; in test [5] (PA-1 cells, 5 days, Cell-Titer Glo, read-out: PA-1 Anti-proliferative activity IC50) it was 1.2 nM; in test [6] (MDA-MB-231 cells, 5 days, Cell-Titer Glo, read-out: MDA-MB-231 Anti-proliferative activity IC50), 23.2 nM. The IC50 in test [8] (A549 cells, 5 days, Cell-Titer Glo, read-out: A549 Anti-proliferative activity IC50) was 15.7 nM.
